# According to patent US20070037800A1, “Method of treating neurological disorders using clotrimazole and derivatives thereof” (EnVivo Pharmaceuticals, Inc., priority 2005, published 2007):
# Values joined by “and” are separate entries in the source; they are usually repeats but may differ in a detail not shown here. Identical values can stand only once.
# Legend:
# [1] = system: HD model flies (elav-GAL4 UAS-htt128Q); test: Assay of locomotor activity (climbing speed) using the transgenic Drosophila HD model; assay type: in vivo; parameters: Early Speed Effect Size, Summary / Late Speed Effect Size, Summary / Early Speed Effect Size / Late Speed Effect Size / Early Speed Adj Value / Late Speed Adj Value / Early Speed Effect Size, combined campaigns / Late Speed Effect Size, combined campaigns: unit not given here; conditions: for Early Speed Effect Size, combined campaigns / Early Speed Percent TSA, combined campaigns / Early Speed Effect Size / Early Speed Adj Value / Early Speed Percent TSA: days 1 to 7; for Early Speed Effect Size, combined campaigns / Early Speed Percent TSA, combined campaigns / Late Speed Effect Size, combined campaigns / Late Speed Percent TSA, combined campaigns: drawing 84; for Late Speed Effect Size, combined campaigns / Late Speed Percent TSA, combined campaigns / Late Speed Percent TSA / Late Speed Adj Value / Late Speed Effect Size: days 8 to 10; for Early Speed Effect Size, Summary / Early Speed Percent TSA, Summary: days 1-7; for Late Speed Effect Size, Summary / Late Speed Percent TSA, Summary: days 8-10; for Early Speed Effect Size: food conc 50 (unit not printed; b38: μM); for Early Speed Effect Size / Late Speed Effect Size: vs DMSO carrier; for Early Speed Effect Size / Early Speed Adj Value / Early Speed Percent TSA / Late Speed Percent TSA / Late Speed Adj Value / Late Speed Effect Size: single campaigns; for Early Speed Percent TSA: effect size as percentage of positive control TSA; for Late Speed Percent TSA: effect size as percentage of TSA
# Protocol: Female “activator” or “driver” flies were engineered to contain the neuronal specific drivers elav-GAL4 or nirvana-GAL4 in a heat shock-hid Y (phs-hidY or HS-hid+ on Y chomosome) background (Starz-Gaiano et al., 2001). The hid gene is a pro-apoptotic gene, which is expressed in this line by a heat inducible promoter. These flies can be heat shocked in bottles twice over 2 days for 2 hours to kill male larvae and thereby produce massive numbers of elav-GAL4 or nirvana-GAL4 virgin females.
# For the mass production of males (either UAS-htt128Q[F27B]/UAS-htt128Q[F27B], the disease transgenes were moved into lines that contain an attached X-chromosome with the same phs-hid element (X^XPhs-hidY) used above. In this scheme the hid gene is present only in female flies and therefore is used to produce large numbers of male flies by heat shock. The massive collection of virgin female elav-GAL4 flies are crossed with the massive collection of males that contain the silent disease-transgene. Their progeny, the F1 generation, are the “assay flies” (e.g., elav-GAL4UAS-htt128Q[F27B]). These assay flies are robotically distributed into drugged assay vials.
# The HD Drosophila model express exons 1 to 4 of the human huntingtin gene with 128Q repeats in exon 1. The construct was cloned into the Drosophila transformation vector, pUAST. These were then crossed to GAL4 driver lines that direct expression either to the eye (GMR-GAL4 promoter) or to neurons (elav-GAL4 promoter). […] Progressive degeneration of the photoreceptors was observed after several days of adult life. The properties of the HD128Q flies were consistent with those reported by others for two other strains in which exon-1 containing expanded repeats was expressed in the eye (Jackson et al., 1998; Steffan et al., 2001—US20040142859). To test the effects on motor function of the HD mutation, HD128Q lines were examined in which the transgene was expressed in all neurons. Motor function was assayed by tapping flies in a vial to the bottom and measuring the number of flies that are able to climb to a specified height within a specific length of time. When tapped to the bottom of a vial, wild-type flies rapidly climb to the top, where most of them remain. […] The decline in motor performance was progressive, leading to early death. […] The HD128Q model thus has a functional deficit that in its phenotypic and neuropathological characteristics appears to be related to that seen in the human disease. Moreover, as the deficit is quantifiable and reproducible, it is suitable for automated high-throughput screening.
# Standard environmental conditions were followed to establish that different metrics detect differences between disease and control flies. A comparison of compound-treated HD flies and untreated HD flies was also included. The positive control compound tested was the Histone Deacetylase (HDAC) inhibitor Trichostatin-A (TSA).
# In an assay run (typically corresponding to one day of an entire multi-day assay) the following process was followed. Each tube was dropped onto a surface, causing the flies to fall to the bottom of the tube and be subjected to impact shock stimulation. Their immediate negative geotaxis response to that event was thereafter captured in a 7.5 second movie. For each tube, this step was repeated five times, giving a total of five repeat videos per tube and run. The raw data for each video were analyzed and trajectories following the movements of individual flies in a tube were generated. The method for analyzing fly trajectories is described in published U.S. Patent Application 2004/0076318A1, which is hereby incorporated by reference in its entirety. The trajectories consisted of a list of x- and y-coordinates mapping out the positions of all the flies in the video, as well as measurements of size, orientation, length and width of the flies, with one list entry for every frame from when the fly started moving in one frame until it stopped in another. […]
# microglia activation = conditions: has been shown; no source given; cited from earlier work
# R6/2 transgenic mice = test: Rotarod test in R6/2 transgenic mouse model of Huntington's disease; assay type: in vivo
# Protocol: The rotarod test and body weight measurements were used to assess the therapeutic effects of clotrimazole in R6/2 transgenic mice. R6/2 and WT male mice at 4 weeks of age were trained 3 consecutive days on the accelerating rotarod. Each training day consisted of four sessions. After the training was complete, the animals were reassigned to new groups to create statistically homogenous cohorts. At 5 weeks of age, animals (n=10 per group) were dosed twice daily, intraperitoneally (IP) with clotrimazole at either 2 mg/kg or 10 mg/kg (equal to 4 and 20 mg/kg per day). Rotarod testing was performed at 6, 8, 10, and 12 weeks of age as described above. Body weights were collected every week.
# [2] = conc 50, campaigns drawing 83, drawing 85
# [3] = conc 100, campaigns drawing 74, drawing 76, drawing 83, drawing 89
# [4] = conc 150, campaigns drawing 83, drawing 86, drawing 88, drawing 89
# [5] = dose 50, weighted average of campaigns drawing 83, drawing 84 (Table 1)
# [6] = dose 100, weighted average of campaigns drawing 74, drawing 76, drawing 83, drawing 84 (Table 1)
# [7] = dose 150, weighted average of campaigns drawing 83, drawing 84 (Table 1)
# [8] = food conc 50, listed as CLOTRIMAZOLE
smiles,measurement,setting,value
Clc1ccccc1C(c1ccccc1)(c1ccccc1)n1ccnc1 [clotrimazole],"Early Speed Effect Size, combined campaigns",[1]; [2],0.867
same,"Early Speed Percent TSA, combined campaigns",[1]; [2],37.7%
same,"Late Speed Effect Size, combined campaigns",[1]; [2],1.076
same,"Late Speed Percent TSA, combined campaigns",[1]; [2],36.3%
same,"Early Speed Effect Size, combined campaigns",[1]; [3],0.89
same,"Early Speed Percent TSA, combined campaigns",[1]; [3],32%
same,"Late Speed Effect Size, combined campaigns",[1]; [3],1.372
same,"Late Speed Percent TSA, combined campaigns",[1]; [3],36.8%
same,"Early Speed Effect Size, combined campaigns",[1]; [4],1.211
same,"Early Speed Percent TSA, combined campaigns",[1]; [4],43.8%
same,"Late Speed Effect Size, combined campaigns",[1]; [4],1.664
same,"Late Speed Percent TSA, combined campaigns",[1]; [4],42.8%
same,"Early Speed Effect Size, Summary",[1]; [5],0.8
same,"Early Speed Percent TSA, Summary",[1]; [5],25.9%
same,"Late Speed Effect Size, Summary",[1]; [5],1.43
same,"Late Speed Percent TSA, Summary",[1]; [5],35.7%
same,"Early Speed Effect Size, Summary",[1]; [6],1.13
same,"Early Speed Percent TSA, Summary",[1]; [6],39.6%
same,"Late Speed Effect Size, Summary",[1]; [6],1.42
same,"Late Speed Percent TSA, Summary",[1]; [6],39.6%
same,"Early Speed Effect Size, Summary",[1]; [7],1.35
same,"Early Speed Percent TSA, Summary",[1]; [7],41.6%
same,"Late Speed Effect Size, Summary",[1]; [7],1.8
same,"Late Speed Percent TSA, Summary",[1]; [7],42.7%
same,"Climbing assay, dose dependence","[1]; doses 50, 100, 150 (Table 1)",dose-dependent effect
same,Early Speed Effect Size,[1],0.73 and 0.88
same,Early Speed Effect Size,[1]; listed as CLOTRIMAZOLE,0.725 and 0.882 and 0.932
same,Early Speed Adj Value,[1]; food conc 50 (μM),11.2 and 10.98 and 10.15
same,Early Speed Percent TSA,[1]; food conc 50,26.3% and 25.4%
same,Early Speed Percent TSA,[1]; [8],26.3% and 25.4% and 48.8%
same,Late Speed Percent TSA,[1]; food conc 50,38.8% and 31.5%
same,Late Speed Percent TSA,[1]; [8],38.8% and 31.5% and 36.8%
same,Late Speed Adj Value,[1]; food conc 50,6.587 and 5.802 and 6.193
same,Late Speed Effect Size,[1]; food conc 50,1.46 and 1.39
same,Late Speed Effect Size,[1]; [8],1.458 and 1.39 and 0.767
same,Early Speed Adj Value,[1]; food conc 100 (μM),10.12 and 11.32 and 11.4873 and 10.63 and 10.84
same,Late Speed Adj Value,[1]; food conc 100,5.805 and 5.534 and 6.208 and 6.981 and 6.155
same,Early Speed Adj Value,[1]; food conc 150 (unit not given),11.15 and 11.68 and 10.57 and 10.74 and 11.13
same,Late Speed Adj Value,[1]; food conc 150,6.189 and 6.817 and 5.855 and 5.983 and 6.595
same,Effect in Drosophila model of HD,"[1]; vs carrier controls, metrics early speed (days 1-7) and late speed (days 8-10)",reproducible positive effects
same,Inhibition of microglia activation,microglia activation,potent inhibitor
same,Rotarod effect,"R6/2 transgenic mice; 20 mg/kg/day IP-BID, any time point tested (6, 8, 10, 12 weeks of age)",did not have a statistically significant effect
same,Rotarod effect vs vehicle-treated R6/2 animals,"R6/2 transgenic mice; at the higher dose as printed, P=0.01 (Wilcoxon test)",statistically-significant effect
same,Behavior in vivo (rotarod),"R6/2 transgenic mice; low dose of 4 mg/kg/day (2 mg/kg IP twice daily), preliminary data",positively affects
